# From the supplement of paper PMC10307832
# Legend:
# Apatinib = compound: N#CC1(c2ccc(NC(=O)c3cccnc3NCc3ccncc3)cc2)CCCC1 [Apatinib]; experiment: relative viability (nuclei count vs DMSO), 5 days (fraction); higher = more cells survive
# Method in brief: (§1)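 Lung cancer cell lines in 1536-well plates were exposed by pinning to five library-drug doses (not always all listed) √10 apart, following an overnight hold at 37 °C. MetaXpress counted Hoechst-stained nuclei from 4× images taken after 5 days without medium change. Viability is the median ratio of treated-well to vehicle-well nuclei across plates. Plates required control CV below 25% and at least one doubling.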
# Metformin = compound: CN(C)C(=N)NC(=N)N [Metformin]; experiment: as above
# Method in brief: as §1
cell line,measurement,setting,value
NCI-H460,relative viability,Apatinib; 0.08 µM,0.976
same,relative viability,Apatinib; 0.253 µM,0.99
same,relative viability,Apatinib; 0.8 µM,0.963
same,relative viability,Apatinib; 2.53 µM,0.925
same,relative viability,Apatinib; 8 µM,0.93
same,relative viability,Metformin; 31.62 µM,1.01
same,relative viability,Metformin; 100 µM,1
same,relative viability,Metformin; 316.23 µM,0.976
same,relative viability,Metformin; 1000 µM,1.07
